Values of other authors as cited in article PMC4457351 (Journal of Visualized Experiments : JoVE, 2014).

Conditions: read-out: Kd(calcium)

Kd: ~345 nM
Substance: Fluo-4
